According to US11407715B2, “Substituted indoline derivatives as dengue viral replication inhibitors” (JANSSEN PHARMACEUTICALS, INC., priority 2017, dated 2022):

Assays:
in vitro = conditions: African green monkey
DENV-2 16681 strain = test: microbe, parasite or virus in culture; type: cell-based, Dengue virus; conditions: for EC50: DENV-2 16681 eGFP, Vero cells, MOI 0.5, 3 days; for SI: SI=CC50/EC50, DENV-2 antiviral assay
Vero cells = conditions: African green monkey
[1] = Dengue virus, DENV2, Vero, 72 h

Row | SMILES | CC50 (in vitro) [µM] | EC50 (DENV-2 16681 strain; [1]) [nM] | SI (DENV-2 16681 strain) | EC50 (DENV-2 16681 strain) [nM] | CC50 (Vero cells) [µM]
1 | COc1cc(NC(C(=O)N2CCc3ccc(OC(F)(F)F)cc32)c2ccc(Cl)cc2OC)cc(OCCC(C)C(=O)O)c1 (racemic) [Compound 17, 4-(3-((1-(4-chloro-2-methoxyphenyl)-2-oxo-2-(6-(trifluoromethoxy)indolin-1-yl)ethyl)amino)-5-methoxyphenoxy)-2-methylbutanoic acid] | 13 | 0.18 | 100043 | – | –
2 | COc1cc(NC(C(=O)N2CCc3ccc(OC(F)(F)F)cc32)c2ccc(Cl)cc2OC)cc(OCCC(C)(C)C(=O)O)c1 (single isomer, unassigned) [Compound 18A] | 12 | – | 1160 | 9.9 | –
3 | COc1cc(NC(C(=O)N2CCc3cc(F)c(OC(F)(F)F)cc32)c2ccc(Cl)cc2)cc(OC2CC(C(=O)O)C2)c1 (stereo not drawn) [Compound 27, ((1s,3s)-3-(3-((1-(4-chlorophenyl)-2-(5-fluoro-6-(trifluoromethoxy)indolin-1-yl)-2-oxoethyl)amino)-5-methoxyphenoxy)cyclobutene-carboxylic Acid] | 13 | – | 149640 | 0.067 | –
4 | COc1cc(NC(C(=O)N2CCc3ccc(OC(F)(F)F)cc32)c2ccc(Cl)cc2)cc(OCC2(CC(=O)O)CC2)c1 (single isomer, unassigned) [Compound 5B] | – | – | 921 | 11 | 10
5 | COc1cc(NC(C(=O)N2CCc3cc(OC)c(C(F)(F)F)cc32)c2ccc(Cl)cc2)cc(OCC2CC(C(=O)O)C2)c1 (stereo not drawn) [Compound 25, (1r,3r)-3-((3-((1-(4-chlorophenyl)-2-(5-methoxy-6-(trifluoromethyl)indolin-1-yl)-2-oxoethyl)amino)-5-methoxyphenoxy)methyl)-cyclobutanecarboxylic Acid] | – | – | 26800 | 0.45 | 12
6 | COc1cc(NC(C(=O)N2CCc3cc(OC)c(C(F)(F)F)cc32)c2ccc(Cl)cc2)cc(OCCC(C)(C)C(=O)O)c1 (racemic) [Compound 21, 4-(3-((1-(4-chlorophenyl)-2-(5-methoxy-6-(trifluoromethyl)indolin-1-yl)-2-oxoethyl)amino)-5-methoxyphenoxy)-2,2-dimethylbutanoic acid] | 15 | 1.1 | 11000 | – | –
7 | COc1cc(NC(C(=O)N2CCc3ccc(OC(F)(F)F)cc32)c2ccc(Cl)cc2)cc(OC23CC(C(=O)O)(C2)C3)c1 (single isomer, unassigned) [Compound 9A] | 11 | – | 125 | 90 | –
8 | COc1cc(NC(C(=O)N2CCc3ccc(OC(F)(F)F)cc32)c2ccc(Cl)cc2)cc(OCC2CC2C(=O)O)c1 (stereo not drawn) [Compound 6AA] | 8.3 | – | 8870 | 0.74 | –
9 | COc1cc(NC(C(=O)N2CCc3ccc(OC(F)(F)F)cc32)c2ccc(Cl)cc2)cc(OCCC(=O)O)c1 (single isomer, unassigned) [Compound 12A] | 10 | – | 267 | 38 | –
10 | COc1cc(NC(C(=O)N2CCc3ccc(OC(F)(F)F)cc32)c2ccc(Cl)cc2)cc(OCC2CC(C(=O)O)C2)c1 (stereo not drawn) [Compound 11A] | – | – | 2710 | 3.8 | 10
11 | COc1cc(NC(C(=O)N2CCc3ccc(OC(F)(F)F)cc32)c2ccc(Cl)cc2)cc(OC2CC(C(=O)O)C2)c1 (stereo not drawn) [Compound 7A] | – | – | 1130 | 9.1 | 10
12 | COc1cc(NC(C(=O)N2CCc3ccc(OC(F)(F)F)cc32)c2ccc(Cl)cc2)cc(OCC(C)CC(=O)O)c1 (single isomer, unassigned) [Compound 4B] | – | – | 935 | 11 | 10
13 | COc1cc(NC(C(=O)N2CCc3ccc(OC(F)(F)F)cc32)c2ccc(Cl)cc2)cc(OCC2CC2C(=O)O)c1 (stereo not drawn) [Compound 6BA] | – | – | 703 | 12 | 8.7
14 | COc1cc(NC(C(=O)N2CCc3cc(F)c(OC(F)(F)F)cc32)c2ccc(Cl)cc2)cc(OCC2CC(C(=O)O)C2)c1 (stereo not drawn) [Compound 30B] | – | – | 1800 | 5.9 | 11
15 | COc1cc(NC(C(=O)N2CCc3ccc(OC(F)(F)F)cc32)c2ccc(Cl)cc2)cc(OCCC(C)C(=O)O)c1 (single isomer, unassigned) [Compound 1A] | – | – | 523 | 18 | 9.6
16 | COc1cc(NC(C(=O)N2CCc3ccc(OC(F)(F)F)cc32)c2ccc(Cl)cc2)cc(OCC2(F)CC2C(=O)O)c1 (stereo not drawn) [Compound 29AA] | – | – | 151 | 61 | 9.2
17 | COc1cc(NC(C(=O)N2CCc3ccc(OC(F)(F)F)cc32)c2ccc(Cl)cc2OC)cc(OCCC(C)C(=O)O)c1 (single isomer, unassigned) [Compound 17B] | – | – | 59 | 180 | 11
18 | COc1cc(NC(C(=O)N2CCc3ccc(OC(F)(F)F)cc32)c2ccc(Cl)cc2)cc(OCC2CC(C(=O)O)C2)c1 (stereo not drawn) [Compound 11, (1r,3r)-3-((3-((1-(4-chlorophenyl)-2-oxo-2-(6-(trifluoromethoxy)indolin-1-yl)ethyl)amino)-5-methoxyphenoxy)methyl)cyclobutanecarboxylic acid] | – | – | 97100 | 0.13 | 12
19 | COc1cc(NC(C(=O)N2CCc3ccc(OC(F)(F)F)cc32)c2ccc(Cl)cc2OC)cc(OCC2CC2C(=O)O)c1 (stereo not drawn) [Compound 19BA] | – | – | 707 | 16 | 11

Row | SMILES | CC50 (in vitro) [µM] | EC50 (DENV-2 16681 strain; [1]) [nM] | SI (DENV-2 16681 strain) | EC50 (DENV-2 16681 strain) [nM] | CC50 (Vero cells) [µM]
20 | COc1cc(NC(C(=O)N2CCc3cc(F)c(OC(F)(F)F)cc32)c2ccc(Cl)cc2)cc(OC2CC(C(=O)O)C2)c1 (single isomer, unassigned) [Compound 27A] | – | – | 14300 | 0.41 | 11
21 | COc1cc(NC(C(=O)N2CCc3ccc(OC(F)(F)F)cc32)c2ccc(Cl)cc2)cc(OCC2(F)CC2C(=O)O)c1 (stereo not drawn) [Compound 28AA] | – | – | 34 | 330 | 11
22 | COc1cc(NC(C(=O)N2CCc3ccc(OC(F)(F)F)cc32)c2ccc(Cl)cc2)cc(OCC2(F)CC2C(=O)O)c1 (stereo not drawn) [Compound 28BA] | – | – | 574 | 17 | 10
23 | COc1cc(CCCCC(=O)O)cc(NC(C(=O)N2CCc3ccc(OC(F)(F)F)cc32)c2ccc(Cl)cc2)c1 (single isomer, unassigned) [Compound 14B] | – | – | 156 | 60 | 9.3
24 | COc1cc(NC(C(=O)N2CCc3ccc(OC(F)(F)F)cc32)c2ccc(Cl)cc2)cc(OC2CC(C(=O)O)C2)c1 (stereo not drawn) [Compound 8, (1s,3s)-3-(3-((1-(4-chlorophenyl)-2-oxo-2-(6-(trifluoromethoxy)indolin-1-yl)ethyl)amino)-5-methoxyphenoxy)cyclobutanecarboxylic acid] | – | – | >126733 | 0.048 | 13
25 | COc1cc(NC(C(=O)N2CCc3cc(OC)c(C(F)(F)F)cc32)c2ccc(Cl)cc2)cc(OCC2CC2C(=O)O)c1 (stereo not drawn) [Compound 22BA] | – | – | 786 | 15 | 12
26 | COc1cc(NC(C(=O)N2CCc3ccc(OC(F)(F)F)cc32)c2ccc(Cl)cc2)cc(OCC2(F)CC2C(=O)O)c1 (stereo not drawn) [Compound 29BA] | – | – | 2890 | 3.4 | 9.8
27 | COc1cc(NC(C(=O)N2CCc3ccc(OC(F)(F)F)cc32)c2ccc(Cl)cc2)cc(OCCC(C)C(=O)O)c1 (single isomer, unassigned) [Compound 1B] | – | – | 579 | 18 | 10
28 | COc1cc(NC(C(=O)N2CCc3cc(F)c(OC(F)(F)F)cc32)c2ccc(Cl)cc2)cc(OCC2CC2C(=O)O)c1 (single isomer, unassigned) [Compound 26B, (1 S*,2S*)-2-((3-((1-(4-chlorophenyl)-2-(5-fluoro-6-(trifluoromethoxy)indolin-1-yl)-2-oxoethyl)amino)-5-methoxyphenoxy)methyl)-cyclopropanecarboxylic Acid] | – | – | 10600 | 0.94 | 12
29 | COc1cc(NC(C(=O)N2CCc3cc(OC)c(C(F)(F)F)cc32)c2ccc(Cl)cc2)cc(OCCC(C)C(=O)O)c1 (single isomer, unassigned) [Compound 20B] | – | – | 69 | 180 | 12
30 | COc1cc(NC(C(=O)N2CCc3ccc(OC(F)(F)F)cc32)c2ccc(Cl)cc2)cc(OCCC(C)(C)C(=O)O)c1 (single isomer, unassigned) [Compound 2B] | – | – | 565 | 19 | 11
31 | COc1cc(NC2CC(C(=O)O)C2)cc(NC(C(=O)N2CCc3ccc(OC(F)(F)F)cc32)c2ccc(Cl)cc2)c1 (single isomer, unassigned) [Compound 33B] | – | – | 1760 | 7.9 | 14
32 | COc1cc(NC(C(=O)N2CCc3cc(F)c(OC(F)(F)F)cc32)c2ccc(Cl)cc2)cc(OCC2CC(C(=O)O)C2)c1 (stereo not drawn) [Compound 31B] | – | – | 4400 | 2.6 | 12
33 | COc1cc(NC(C(=O)N2CCc3ccc(OC(F)(F)F)cc32)c2ccc(Cl)cc2)cc(OCC2CC(C(=O)O)C2)c1 (stereo not drawn) [Compound 10A] | – | – | 3790 | 2.7 | 10
34 | COc1cc(NC(C(=O)N2CCc3cc(OC)c(C(F)(F)F)cc32)c2ccc(Cl)cc2)cc(OCC2CC(C(=O)O)C2)c1 (stereo not drawn) [Compound 25A] | – | – | 1640 | 7.1 | 12
35 | COc1cc(NC(C(=O)N2CCc3cc(OC)c(Cl)cc32)c2ccc(Cl)cc2)cc(OC2CC(C(=O)O)C2)c1 (single isomer, unassigned) [Compound 32A] | – | – | 205 | 63 | 13
36 | COc1cc(NC(C(=O)N2CCc3ccc(OC(F)(F)F)cc32)c2ccc(Cl)cc2)cc(OC2CC(C(=O)O)C2)c1 (stereo not drawn) [Compound 8A] | – | – | 11600 | 0.86 | 12
37 | COc1cc(NC(C(=O)N2CCc3cc(OC)c(C(F)(F)F)cc32)c2ccc(Cl)cc2)cc(OCC2CC(C(=O)O)C2)c1 (stereo not drawn) [Compound 24A] | – | – | 469 | 24 | 11
